Tested on: β-receptor
Assay: Reactivity for dobutamine (β-receptor response, LVdp/dtmax) in anesthetized rats 1 week after the operation
Type: in vivo, rat
Conditions: i.v.; for reactivity of the β-receptor: difference in LVdp/dtmax between before and after administration (Δ): male JCL-Wistar rat, mean ± standard error
Method: A male JCL-Wistar rat (13 to 15 week-old) was anesthetized with pentobarbital (50 mg/kg, i.p.) and subjected to thoracotomy at the midline under artificial respiration. The pericardium was dissected to expose the heart, and the proximal portion of the ascending aorta was dissected. A thread was put through the proximal portion of the left coronary artery along with the cardiac muscle, with a needled suture, and the thread was ligated to occlude the coronary artery. Immediately after the occlusion of the coronary artery (within 5 minutes), a polyethylene tube having a length of 3 mm (outer diameter: 2.80 mm; inner diameter: 1.77 mm) was installed on the proximal portion of the ascending aorta to conduct stenosis of 40 to 50%. After that, close-chest operation was conducted, and the rat was returned to a breeding cage after spontaneous respiration had been confirmed, and bred for 1 week by a general procedure. The rats in which the recovery of spontaneous respiration had not been confirmed were excluded from the following analysis. After 1 week of the operation, to measure the hemodynamics, the rat was anesthetized with pentobarbital (40 mg/kg, i.p.). A tracheal cannula was inserted, then a mirror catheter having a pressure sensor (2F) was inserted from the right carotid artery to the left ventricle. The waveform of the left ventricular pressure was analyzed with a differential amplifier, and the maximum differential value (LVdp/dtmax) and the minimum differential value (LVdp/dtmin) were recorded.
On the other hand, in order to measure the blood pressure and to administrate a drug, a polyethylene tube was inserted to the left femoral artery and left femoral vein, respectively, and the heart rate carculated from the blood pressure pulse and the dipolar lead (II) electrocardiogram were recorded.
Dobutamime was dissolved in a solution of saline containing 0.01% of ascorbic acid, and the solution was administrated in a dose of 0.3 to 10 μg/kg i.v. to investigate the β-receptor response.
The basal hemodynamics after 1 week of the operation was represented by the value before the administration of dobutamime, and the reactivity of the β-receptor was represented by the difference between before and after the administration of dobutamime (Δ mmHg/sec) by the mean value±standard error.

Question: Which “reactivity of the β-receptor: difference in LVdp/dtmax between before and after administration (Δ)” value (0.3 μg/kg, group with coronary stenosis and stenosis of the proximal portion of the aorta) does the source give for CC(CCc1ccc(O)cc1)NCCc1ccc(O)c(O)c1 (stereo not drawn) [Dobutamine] here?
Answer: Its value is 278 ± 144 mmHg/sec.

Question: And the “reactivity of the β-receptor: difference in LVdp/dtmax between before and after administration (Δ)” value (0.3 μg/kg, sham-operated group)?
Answer: The value was 2287 ± 8 mmHg/sec.

Question: And the “reactivity of the β-receptor: difference in LVdp/dtmax between before and after administration (Δ)” value (1.0 μg/kg, group with coronary stenosis and stenosis of the proximal portion of the aorta)?
Answer: Its value is 832 ± 501 mmHg/sec.

Question: What about the “reactivity of the β-receptor: difference in LVdp/dtmax between before and after administration (Δ)” value (1.0 μg/kg, sham-operated group) of the same molecule?
Answer: The value was 4127 ± 112 mmHg/sec.

Question: And the “reactivity of the β-receptor: difference in LVdp/dtmax between before and after administration (Δ)” value (3.0 μg/kg, group with coronary stenosis and stenosis of the proximal portion of the aorta)?
Answer: The value was 1641 ± 794 mmHg/sec.

Question: What about the “reactivity of the β-receptor: difference in LVdp/dtmax between before and after administration (Δ)” value (3.0 μg/kg, sham-operated group) of the same molecule?
Answer: The value was 7135 ± 753 mmHg/sec.

Question: What about the “reactivity of the β-receptor: difference in LVdp/dtmax between before and after administration (Δ)” value (10 μg/kg, group with coronary stenosis and stenosis of the proximal portion of the aorta) of the same molecule?
Answer: Its value is 2431 ± 1028 mmHg/sec.

Question: What about the “reactivity of the β-receptor: difference in LVdp/dtmax between before and after administration (Δ)” value (10 μg/kg, sham-operated group) of the same molecule?
Answer: Its value is 7654 ± 999 mmHg/sec.

Question: And the “maximum reaction of LVdp/dtmax in the stenosis group as compared with the sham-operated group” value (all doses 0.3, 1.0, 3.0, 10 μg/kg, coronary + proximal aorta stenosis group vs sham-operated group)?
Answer: The value was “remarkably decreased”.

Reference: patent publication US7166762B2, “Method of constructing heart failure model animal” (Takeda Pharmaceutical Company Limited, priority 2000, dated 2007)
